Measured values published in PMC3288109, “γ-Aminobutyric Acid Transporter 2 Mediates the Hepatic Uptake of Guanidinoacetate, the Creatine Biosynthetic Precursor, in Rats” (PLoS ONE, 2012).

T1: GAT2 (γ-aminobutyric acid transporter 2, SLC6A13) (Rattus norvegicus, UniProt P31646)
T1 sequence (P31646 1-602): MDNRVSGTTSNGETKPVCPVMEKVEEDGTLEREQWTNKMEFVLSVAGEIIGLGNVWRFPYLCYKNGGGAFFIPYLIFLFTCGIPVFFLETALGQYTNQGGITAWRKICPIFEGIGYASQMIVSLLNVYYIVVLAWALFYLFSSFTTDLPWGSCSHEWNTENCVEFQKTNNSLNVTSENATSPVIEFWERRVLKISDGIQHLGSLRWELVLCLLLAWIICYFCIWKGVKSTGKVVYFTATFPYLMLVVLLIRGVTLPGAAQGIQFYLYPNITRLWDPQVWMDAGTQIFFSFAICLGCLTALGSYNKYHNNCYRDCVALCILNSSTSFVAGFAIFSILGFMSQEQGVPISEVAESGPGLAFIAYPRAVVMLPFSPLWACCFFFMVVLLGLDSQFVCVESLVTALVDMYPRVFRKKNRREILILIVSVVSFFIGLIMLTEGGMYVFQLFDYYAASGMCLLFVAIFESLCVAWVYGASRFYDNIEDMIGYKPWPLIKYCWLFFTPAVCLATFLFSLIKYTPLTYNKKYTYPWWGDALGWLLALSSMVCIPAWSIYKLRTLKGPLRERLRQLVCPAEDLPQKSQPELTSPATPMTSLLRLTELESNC


Experiments:
[1] = system: T2, freshly isolated rat hepatocytes; assay: cells; design: species or system primary rat hepatocytes; Inhibition of [14C]GAA (18 uM) uptake by freshly isolated rat hepatocytes, 37 C, scintillation counting; conditions: Hepatocyte, 0.05 h, [14C]GAA 18 uM, 3 min, 37 C, read-out: % of control remaining
T2 construct: Wistar primary hepatocytes, collagenase perfusion
Description: Rat hepatocytes were isolated by collagenase perfusion and Percoll isodensity centrifugation as described previously. The hepatocytes were resuspended in Tyrode buffer containing (in mM) 137 NaCl, 2.7 KCl, 1.05 MgCl2, 1.8 CaCl2, 12 NaHCO3, 0.4 NaH2PO4, and 5.6 D-glucose. Uptake of [^14C]GAA or [^14C]creatine by the freshly isolated hepatocytes was examined according to the methods described previously. In brief, after centrifugation and aspiration of the buffer, uptake was initiated by applying 100 µL Tyrode buffer containing [^14C]GAA or [^14C]creatine at 37°C in the presence or absence of inhibitors. Na^+-free Tyrode buffer was prepared by replacement of NaCl, NaH2PO4 and NaHCO3 with equimolar N-methyl-D-glucamine, KH2PO4, and KHCO3, respectively. Cl^−-free uptake buffer was prepared by replacement with equimolar gluconate. After a predetermined period, uptake was terminated by centrifugation of the solution. The cells were then solubilized in 1 N NaOH and subsequently neutralized with 1 N HCl. The cell-associated radioactivity and protein content were assayed by [compound left out] scintillation spectrometry and detergent compatible protein assay (a DC protein assay kit, Bio-Rad, Hercules, CA) with bovine serum albumin as a standard. […] In contrast, there was no time-dependent increase in [^14C]creatine uptake by hepatocytes (Figure 2A). […] The [^14C]GAA uptake took place in a concentration-dependent manner and consisted of a single saturable component (Figure 2B). […] In contrast, creatinine, betaine, guanidinosuccinic acid, L-arginine, L-alanine, and L-serine had much weaker effects. GABA, taurine, and creatine inhibited the [^14C]GAA uptake in a concentration-dependent manner with an IC50 value of 8.81±1.33 µM, 1.13±0.30 mM, and 1.42±0.53 mM, respectively (Figure 2C–E). […] Among the GAT subtypes, GAT2 is predominantly expressed in rat liver. […] [^14C]GAA uptake was reduced by 46.4% in GAT2-silenced hepatocytes corresponding to the reduction in GAT2 protein (Figure 2F).

[2] = target: T1, GAT2 (γ-aminobutyric acid transporter 2, SLC6A13); assay: cell-based; design: rat GAT2 open reading frame cRNA expressed in Xenopus laevis oocytes; species or system Xenopus laevis oocytes; Inhibition of [14C]GAA (45 uM) uptake by rat GAT2 cRNA-injected oocytes, 20 C, scintillation counting; conditions: Oocyte; [14C]GAA 45 uM, 1 h, 20 C; read-out: % of control / 100±7
Procedure: Using T7 RNA polymerase, capped cRNA was transcribed from NotI-linearized pGEM-HEN containing an open reading frame of rat GAT2 cDNA. Defolliculated oocytes were injected with 23 nL water or the capped cRNA (30–50 ng) and incubated at 18°C in freshly prepared standard oocyte saline solution containing 100 mM NaCl, 2 mM KCl, 1.8 mM CaCl2, 1 mM MgCl2, and 5 mM HEPES, 25 µg/mL gentamycin, 2.5 mM pyruvate and 1% bovine serum albumin, pH 7.5. The standard oocyte saline solution used to incubate the oocytes was replaced with fresh solution daily. Experiments were performed after incubation for 4 to 6 days. For the uptake study by Xenopus laevis oocytes, oocytes were preincubated with 500 µL ND96 solution containing (in mM) 96 NaCl, 2 KCl, 1.8 CaCl2, 1 MgCl2, and 5 HEPES for 20 min at 20°C before the uptake experiment. The uptake experiment was initiated by replacing the ND96 solution with 200 µL of the same solution containing [^14C]GAA (45 µM) […] [^14C]creatine (45 µM). After incubation for a designated time at 20°C, the uptake was terminated by addition of ice-cold ND96 solution. […] The inhibitory effects of GAT substrates and inhibitors on the [^14C]GAA uptake were further examined (Figure 3B and Table 3).

[3] = target: T1, GAT2 (γ-aminobutyric acid transporter 2, SLC6A13); type: cell-based; conditions: xenopus oocytes
[4] = substrate: N=C(N)NCC(=O)O; assay: cells, lysate or membranes; type: cell-based, Rattus norvegicus; conditions: Na+ and Cl-

Row | Molecule | activity at 2000 µM [1] [%] | remaining activity at 5000 µM [2] [%] | [14C]creatine uptake by GAT2-expressing oocytes; also 57.3% of control [14C]GAA [3] | Km [4] [µM]
1 | NCCCC(=O)O [GABA] | 17.1 ± 1.6 | 1.74 ± 0.44 | – | –
2 | N[C@@H](CO)C(=O)O [L-Serine] | 83.8 ± 6.4 | – | – | –
3 | CN1CC(=O)NC1=N [Creatinine] | 75.3 ± 8.9 | 147 ± 18 | – | –
4 | O=C(O)C1CCCNC1 (stereo not drawn) [Nipecotic acid] | 30.8 ± 1.2 | 11.9 ± 1.5 | – | –
5 | NCC(=O)O [Glycine] | 54.4 ± 11.2 | – | – | –
6 | NCCS(=O)(=O)O [Taurine] | – | 16.6 ± 4.4 | – | –
7 | NCCC(=O)O [β-Alanine] | 28.5 ± 5.5 | – | – | –
8 | NC(N)=N[C@@H](CC(=O)O)C(=O)O [Guanidinosuccinic acid] | 71.2 ± 5.1 | 148 ± 11 | – | –
9 | N=C(N)NCCCC(=O)O [γ-Guanidinobutyric acid] | – | 2.35 ± 0.23 | – | –
10 | N=C(N)NCCC[C@H](N)C(=O)O [L-Arginine] | 74.9 ± 11.1 | 137 ± 15 | – | –
11 | C[N+](C)(C)CC(=O)O [Betaine] | 64.4 ± 8.7 | 96.7 ± 7.4 | – | –
12 | [H]/N=C(\N)NCCC(=O)O [β-Guanidinopropionic acid] | 18.9 ± 0.9 | 0.81 ± 0.07 | – | –
13 | C[C@H](N)C(=O)O [L-Alanine] | 59.6 ± 7.8 | 138 ± 18 | – | –
14 | N=C(N)NCCS(=O)(=O)O [Guanidinoethansulfonic acid] | 33 ± 4.4 | 11 ± 1.2 | – | –
15 | [H]/N=C(/N)NCC(=O)O [Guanidinoacetic acid] | 24.1 ± 1.1 | – | – | –
16 | CN(CC(=O)O)C(=N)N [Creatine] | – | 57.3 ± 8.3 | 28 fold over water-injected oocytes | –
17 | GAT2 (γ-aminobutyric acid transporter 2, SLC6A13) (Rattus norvegicus) (protein, rat GAT2 open reading frame cRNA expressed in Xenopus laevis oocytes) MDNRVSGTTSNGETKPVCPVMEKVEEDGTLEREQWTNKMEFVLSVAGEIIGLGNVWRFPYLCYKNGGGAFFIPYLIFLFTCGIPVFFLETALGQYTNQGGITAWRKICPIFEGIGYASQMIVSLLNVYYIVVLAWALFYLFSSFTTDLPWGSCSHEWNTENCVEFQKTNNSLNVTSENATSPVIEFWERRVLKISDGIQHLGSLRWELVLCLLLAWIICYFCIWKGVKSTGKVVYFTATFPYLMLVVLLIRGVTLPGAAQGIQFYLYPNITRLWDPQVWMDAGTQIFFSFAICLGCLTALGSYNKYHNNCYRDCVALCILNSSTSFVAGFAIFSILGFMSQEQGVPISEVAESGPGLAFIAYPRAVVMLPFSPLWACCFFFMVVLLGLDSQFVCVESLVTALVDMYPRVFRKKNRREILILIVSVVSFFIGLIMLTEGGMYVFQLFDYYAASGMCLLFVAIFESLCVAWVYGASRFYDNIEDMIGYKPWPLIKYCWLFFTPAVCLATFLFSLIKYTPLTYNKKYTYPWWGDALGWLLALSSMVCIPAWSIYKLRTLKGPLRERLRQLVCPAEDLPQKSQPELTSPATPMTSLLRLTELESNC | – | – | – | 78.9
